According to US9221766B2, “Compounds as diacylglycerol acyltransferase inhibitors” (GlaxoSmithKline LLC, priority 2012, dated 2015):

Biological target: T1, Human DGAT1 (Homo sapiens, UniProt O75907)
T1 construct: made in house; host or cells: Sf9 insect cells (baculovirus); microsomes used as enzyme
T1 sequence (O75907 1-488): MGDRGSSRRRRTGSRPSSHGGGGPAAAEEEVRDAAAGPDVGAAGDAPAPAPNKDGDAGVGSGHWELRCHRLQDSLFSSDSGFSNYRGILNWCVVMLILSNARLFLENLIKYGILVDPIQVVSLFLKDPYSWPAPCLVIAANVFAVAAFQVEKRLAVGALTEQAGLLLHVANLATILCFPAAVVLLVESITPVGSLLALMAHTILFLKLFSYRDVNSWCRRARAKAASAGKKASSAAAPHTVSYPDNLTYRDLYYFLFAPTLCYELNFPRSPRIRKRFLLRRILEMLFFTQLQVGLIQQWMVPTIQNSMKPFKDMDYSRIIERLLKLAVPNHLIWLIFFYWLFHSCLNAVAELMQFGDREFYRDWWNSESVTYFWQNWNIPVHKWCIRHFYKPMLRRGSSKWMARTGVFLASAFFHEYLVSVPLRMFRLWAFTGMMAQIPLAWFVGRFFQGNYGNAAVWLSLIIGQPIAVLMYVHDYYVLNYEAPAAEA
Test: human DGAT1 lipid extraction (LE) assay, inhibition of triacylglycerol product formation
Format: biochemical
Details: human DGAT1 microsomes from Sf9 cells, read-out: hDGAT LE IC50
Protocol: Human DGAT1 was expressed in Sf9 insect cells using a baculovirus expression system. Microsomes were prepared and used as enzyme for in vitro inhibition testing in either of two formats measuring production of coenzyme A or tridecanoylglycerol product, respectively. All steps were performed at 21-23° C. All data for DGAT1 inhibition by test compounds were collected under conditions where product formation was linear with reaction time.
For inhibition of triacylglycerol product formation, 11 uL reactions were run in white Polyplate-384 (PerkinElmer6007300) starting with a 30 minute pre-reaction incubation of 5 uL of 2.2× enzyme and 1 uL of 100% DMSO containing test compound or control compound, {4-[4-(4-amino-7,7-dimethyl-7H-pyrimido[4,5-b][1,4]oxazin-6-yl)phenyl]cyclohexyl}acetic acid. Some assays were performed with inclusion of didecanoylglycerol in the pre-reaction incubation of test compounds and enzyme. Reactions were initiated after 30 minute pre-reaction incubation via addition of 5 uL of 2.2× substrate. Final reaction conditions consisted of 50 mM HEPES pH 7.5, 2 mM MgCl2, 1 mM CHAPS, 25 uM didecanoylglycerol, 0.5 uM decanoyl-CoA, 0.3 nCi/uL [^14C-]decanoyl-CoA or 0.5 nCi/uL [^3H]-decanoyl-CoA, 0.05-4 ug/mL microsomal protein, and 1% DMSO. Following 60 minute reaction incubation, reactions were stopped with 40 uL of 45% isopropanol and 50 mM sodium carbonate in water and mixed. Extraction of tridecanoylglycerol product was accomplished via addition of 30 uL Microscint-E (Perkin Elmer) and 2 hours of incubation (sealed). Plates were read on a Microbeta Microplate reader Inhibition was normalized to controls containing DMSO or 10 uM {4-[4-(4-amino-7,7-dimethyl-7H-pyrimido[4,5-b][1,4]oxazin-6-yl)phenyl]cyclohexyl}acetic acid. IC50s were fitted using GraphPad Prism to a sigmoidal dose response.

SMILES	IC50
O=C(O)CC1(CC(F)(F)F)CCc2cc(-c3ccc(Nc4ccc(C(F)(F)F)nc4)cn3)ccc2C1=O (single isomer, unassigned) [Example 1, 2-(1-Oxo-2-(2,2,2-trifluoroethyl)-6-(5-(6-(trifluoromethyl)pyridin-3-ylamino)pyridin-2-yl)-1,2,3,4-tetrahydronaphthalen-2-yl)acetic acid]	≤ 100 nM
O=C(O)CC1(CC(F)(F)F)CCc2cc(-c3ccc(Nc4ccc(Cl)cc4)cn3)ccc2C1=O (single isomer, unassigned) [Example 2, 2-(6-(5-(4-Chlorophenylamino)pyridin-2-yl)-1-oxo-2-(2,2,2-trifluoroethyl)-1,2,3,4-tetrahydronaphthalen-2-yl)acetic acid]	≤ 100 nM
CC1(CC(=O)O)CCc2cc(-c3ccc(Nc4ccc(C(F)(F)F)nc4)cn3)ccc2C1=O (single isomer, unassigned) [Example 3, 2-(2-Methyl-1-oxo-6-(5-(6-(trifluoromethyl)pyridin-3-ylamino)pyridin-2-yl)-1,2,3,4-tetrahydronaphthalen-2-yl)acetic acid]	500 to 10000 nM
CCC1(CC(=O)O)CCc2cc(-c3ccc(Nc4ccc(C(F)(F)F)nc4)cn3)ccc2C1=O (single isomer, unassigned) [Example 4, 2-(2-Ethyl-1-oxo-6-(5-(6-(trifluoromethyl)pyridin-3-ylamino)pyridin-2-yl)-1,2,3,4-tetrahydronaphthalen-2-yl)acetic acid]	≤ 100 nM
CCC1(CC(=O)O)CCc2cc(-c3ccc(Nc4ccc(C(F)(F)F)nc4)cn3)ccc2C1=O (single isomer, unassigned) [Example 5, 2-(2-ethyl-1-oxo-6-(5-(6-(trifluoromethyl)pyridin-3-ylamino)pyridin-2-yl)-1,2,3,4-tetrahydronaphthalen-2-yl)acetic acid]	100 to 500 nM
O=C(O)CC1(CC(F)(F)F)CCc2cc(-c3ccc(Nc4ccc(Cl)cc4)cn3)ccc2C1=O (single isomer, unassigned) [Example 6, 2-(6-(5-(4-chlorophenylamino)pyridin-2-yl)-1-oxo-2-(2,2,2-trifluoroethyl)-1,2,3,4-tetrahydronaphthalen-2-yl)acetic acid]	≤ 100 nM
O=C(O)CC1(CC(F)(F)F)CCc2cc(-c3ccc(Nc4ccc(Cl)cn4)cn3)ccc2C1=O (single isomer, unassigned) [Example 7, 2-(6-(5-(5-chloropyridin-2-ylamino)pyridin-2-yl)-1-oxo-2-(2,2,2-trifluoroethyl)-1,2,3,4-tetrahydronaphthalen-2-yl)acetic acid]	≤ 100 nM
O=C(O)CC1(CC(F)(F)F)CCc2cc(-c3ccc(Nc4ccc(Cl)cn4)cn3)ccc2C1=O (single isomer, unassigned) [Example 8, 2-(6-(5-(5-chloropyridin-2-ylamino)pyridin-2-yl)-1-oxo-2-(2,2,2-trifluoroethyl)-1,2,3,4-tetrahydronaphthalen-2-yl)acetic acid]	≤ 100 nM
Cc1ccc(Nc2ccc(-c3ccc4c(c3)CCC(CC(=O)O)(CC(F)(F)F)C4=O)nc2)cc1 (single isomer, unassigned) [Example 9, 2-(1-oxo-6-(5-(p-tolylamino)pyridin-2-yl)-2-(2,2,2-trifluoroethyl)-1,2,3,4-tetrahydronaphthalen-2-yl)acetic acid]	100 to 500 nM
O=C(O)CC1(CC(F)(F)F)CCc2cc(-c3ccc(Nc4ccc(F)c(F)c4)cn3)ccc2C1=O (single isomer, unassigned) [Example 10, 2-(6-(5-(3,4-difluorophenylamino)pyridin-2-yl)-1-oxo-2-(2,2,2-trifluoroethyl)-1,2,3,4-tetrahydronaphthalen-2-yl)acetic acid]	≤ 100 nM
O=C(O)CC1(CC(F)(F)F)CCc2cc(-c3cnc(Nc4ccc(C(F)(F)F)nc4)cn3)ccc2C1=O (single isomer, unassigned) [Example 14, 2-(1-Oxo-2-(2,2,2-trifluoroethyl)-6-(5-(6-(trifluoromethyl)pyridin-3-ylamino)pyrazin-2-yl)-1,2,3,4-tetrahydro-naphthalen-2-yl)acetic acid]	≤ 100 nM
O=C(O)CC1(CC(F)(F)F)CCc2cc(-c3cnc(Nc4ccc(C(F)(F)F)nc4)cn3)ccc2C1=O (single isomer, unassigned) [Example 15, 2-(1-oxo-2-(2,2,2-trifluoroethyl)-6-(5-(6-(trifluoromethyl)pyridin-3-ylamino)pyrazin-2-yl)-1,2,3,4-tetrahydronaphthalen-2-yl)acetic acid]	500 to 10000 nM
O=C(O)CC1(CC(F)(F)F)CCc2cc(-c3cnc(Nc4ccc(Cl)cn4)cn3)ccc2C1=O (single isomer, unassigned) [Example 18, 2-(6-(5-(5-chloropyridin-2-ylamino)pyrazin-2-yl)-1-oxo-2-(2,2,2-trifluoroethyl)-1,2,3,4-tetrahydronaphthalen-2-yl)acetic acid]	100 to 500 nM
O=C(O)CC1(CC(F)(F)F)CCc2cc(-c3cnc(Nc4ccc5c(c4)OCO5)cn3)ccc2C1=O (single isomer, unassigned) [Example 20, 2-(6-(5-(benzo[d][1,3]dioxol-5-ylamino)pyrazin-2-yl)-1-oxo-2-(2,2,2-trifluoroethyl)-1,2,3,4-tetrahydronaphthalen-2-yl)acetic acid]	500 to 10000 nM

More lines, now with the values ahead:

IC50	SMILES
100 to 500 nM	O=C(O)CC1(CC(F)(F)F)CCc2cc(-c3ccc(Nc4cccc(Cl)c4)cn3)ccc2C1=O (single isomer, unassigned) [Example 11, 2-(6-(5-(3-chlorophenylamino)pyridin-2-yl)-1-oxo-2-(2,2,2-trifluoroethyl)-1,2,3,4-tetrahydronaphthalen-2-yl)acetic acid]
≤ 100 nM	Cc1ccc(Nc2ccc(-c3ccc4c(c3)CCC(CC(=O)O)(CC(F)(F)F)C4=O)nc2)nc1 (single isomer, unassigned) [Example 12, 2-(6-(5-(5-methylpyridin-2-ylamino)pyridin-2-yl)-1-oxo-2-(2,2,2-trifluoroethyl)-1,2,3,4-tetrahydronaphthalen-2-yl)acetic acid]
100 to 500 nM	Cc1ccc(Nc2ccc(-c3ccc4c(c3)CCC(CC(=O)O)(CC(F)(F)F)C4=O)nc2)nc1 (single isomer, unassigned) [Example 13, 2-(6-(5-(5-methylpyridin-2-ylamino)pyridin-2-yl)-1-oxo-2-(2,2,2-trifluoroethyl)-1,2,3,4-tetrahydronaphthalen-2-yl)acetic acid]
100 to 500 nM	Cc1ccc(Nc2cnc(-c3ccc4c(c3)CCC(CC(=O)O)(CC(F)(F)F)C4=O)cn2)nc1 (single isomer, unassigned) [Example 16, 2-(6-(5-(5-methylpyridin-2-ylamino)pyrazin-2-yl)-1-oxo-2-(2,2,2-trifluoroethyl)-1,2,3,4-tetrahydronaphthalen-2-yl)acetic acid]
100 to 500 nM	O=C(O)CC1(CC(F)(F)F)CCc2cc(-c3cnc(Nc4ccc(Cl)cn4)cn3)ccc2C1=O (single isomer, unassigned) [Example 17, 2-(6-(5-(5-chloropyridin-2-ylamino)pyrazin-2-yl)-1-oxo-2-(2,2,2-trifluoroethyl)-1,2,3,4-tetrahydronaphthalen-2-yl)acetic acid]
100 to 500 nM	O=C(O)CC1(CC(F)(F)F)CCc2cc(-c3cnc(Nc4ccc5c(c4)OCO5)cn3)ccc2C1=O (single isomer, unassigned) [Example 19, 2-(6-(5-(benzo[d][1,3]dioxol-5-ylamino)pyrazin-2-yl)-1-oxo-2-(2,2,2-trifluoroethyl)-1,2,3,4-tetrahydronaphthalen-2-yl)acetic acid]
